Measured values as given in patent US7202339B2, “Crystals of MarR polypeptides, regulators of multiple antibiotic resistance” (Trustees of Tufts College, priority 2001, dated 2007).

Columns and labels:
MarR [1] = target: T1, MarR (Escherichia coli, UniProt P27245); settings: at millimolar concentrations; cited from earlier work
MarR [2] = target: T1, MarR; settings: at millimolar concentrations; cited from earlier work; remark: listed apart in the source
[3] = target: MarR, regulator of multiple antibiotic resistance of Escherichia coli (wild type, expressed from pMarR-WT) (Escherichia coli); experiment: X-ray co-crystal structure of MarR dimer with salicylate

T1 sequence (P27245 whole entry): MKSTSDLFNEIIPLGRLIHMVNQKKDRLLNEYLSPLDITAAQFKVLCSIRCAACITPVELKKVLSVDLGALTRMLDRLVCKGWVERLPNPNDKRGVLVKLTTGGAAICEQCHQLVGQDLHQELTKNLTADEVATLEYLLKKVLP

| Compound | inhibition of MarR activity in vitro (MarR [1]) | inhibition of MarR activity in whole cells (MarR [2]) | buried surface area (N-/C-terminal hydrophobic core) [3] [Å^2] | total buried surface area [3] [Å^2] |
| --- | --- | --- | --- | --- |
| O=C([O-])c1ccccc1O.[Na+] [sodium salicylate] | inhibit MarR activity | inhibit MarR activity | – | – |
| MarR, regulator of multiple antibiotic resistance of Escherichia coli (wild type, expressed from pMarR-WT) | – | – | 3570 | 3700 |
